Read-outs that look alike come from different tables or passages of the source. Marks after values point to notes of the source that are not given here.
Legend:
[1] = Stability constants reported in literature; assay type: binding; settings: across the lanthanide series
[2] = I = 0.16 M NaCl, uncertainties 1σ; cited from earlier work
[3] = cited from earlier work
[4] = cited from earlier work; remark: listed apart in the source
[5] = Potentiometric titration, acid dissociation constants; assay type: physicochemical; settings: aqueous 2.0 M (Na+/H+)ClO4 electrolyte solution
Experimental: All potentiometric titrations were run using a Mettler Toledo T90 autotitrator equipped with an Orion Ross Semi-micro glass electrode with the junction stabilization solution changed to 5.0 M NaCl to prevent precipitation with perchlorate media. All titrations were performed under a hydrated nitrogen atmosphere. The forward titration measurements (acidic titrand, basic titrant) of H4octapa in nitrate electrolyte medium were performed as described previously due to the limited solubility of this ligand in a 2 M (Na^+/H^+)ClO4 medium. Acid dissociation constants of H4octapa in perchlorate electrolyte medium were also determined by titrating in reverse (basic titrand, acidic titrant) to alleviate the solubility concerns. Titrations of H4pypa-peg were performed in reduced-volume glass titration cups (10 mL nominal) due to the limited supply of this ligand. All potentiometric titrations were run in triplicate. The choice of using p[H^+] was explained in Heathman et al.[15], and the calibration of the p[H^+] scale utilized Gran analysis through titration of a strong acid with the base used in the potentiometric titrations[29]–[31]. Potentiometric titration data was modeled and analyzed using Hyperquad2013 to determine acid dissociation and metal complexation stability constants[32],[33].
Changes in hydrogen ion concentration were monitored using a glass electrode for a solution of H4octapa as either NaOH or HClO4 were titrated into the solutions. […] The experimental potentiometric curve collected for a forward titration of H4octapa in (Na^+/H^+)NO3 is presented in Fig. 3A, alongside the distribution curves for the identified HnL species. Following those studies, the acid/base conditions were reversed and octapa^4− was titrated in 2.0 M (Na^+/H^+)ClO4 using HClO4 (SI Figure S7). The potentiometric curves are well respresented by five proton dissociation equilibria. The calculated equilibrium constants correspond with the protonation reactions for two aliphatic amines, two pyridine nitrogens, and one carboxylate group with the protonation sequence described by Eq. (2). The acid dissociation constants (pKa = − log10Ka) for H4octapa are reported in Table 1 alongside previously reported values in the literature.
The experimental potentiometric titration curve and the distribution curves for the associated HnL species for H4pypa-peg are presented in Fig. 3B. […] For comparison, the protonation equilibria of H4edta were also studied in 2.0 M (Na^+/H^+)ClO4. The pKa values for H4edta are listed in Table 2 and collected potentiometric titration curves (forward and reverse) are presented in SI Figure S8. For H4pypa-peg coordination pocket the protonation of H9L^5+, H7L^3+, and H6L^2+ cannot be characterized using a glass electrode. The H6L^2+ species likely represents a protonated carboxylate group, while H5L^+ and H4L may describe the pyridinecarboxylate nitrogens. The equilibrium involving H3L^− likely describes the dissociation of the protonated pyridine nitrogen, while the two most basic species in this ligand (HL^3− and H2L^2−) are likely the bridging amines in the H4pypa-peg backbone. Equation (3) describes the protonation sequence for H4pypa-peg.3 H10-aL^+6-a⇆H9-aL^+5-a+H^+Ka=H^+·H9-aL^+5-a/H10-aL^+6-aa=1…9

[6] = Spectrophotometric titration; assay type: binding; settings: spectrophotometrically determined in 2.0 M (Na+/H+)ClO4, 20 °C
From the text: Changes in the optical absorption characteristics of Nd^3+ were monitored using a Cary 6000i UV/Vis–NIR Spectrometer (Agilent) using 1 cm semimicro quartz cuvettes (Starna) in double-beam mode, where the ^4I9/2 → ^4G5/2, ^2G7/2 transitions[34] were monitored between 560 and 605 nm with a 0.075 nm interval and 1.0 nm spectral bandwidth. Changes in the optical absorption characteristics of ^243Am^3+ and ^248Cm^3+ were monitored using a Flame-S-VIS–NIR-ES spectrometer coupled to a DH-2000-BAL dual-mode light source (Ocean Optics) with a single 1 cm semimicro quartz cuvette (Starna). The light source and spectrometer were optically coupled to the CUV sample (Ocean Optics) holder using 2 m fiberoptics (200 μm) and the parameters for acquisition were 0.369 nm interval and 1000 scans averaged with an integration time/scan 1.08 ms (total acquisition time ~ 1 s). The complexation of Am^3+ with the ligands was monitored in the 495–525 nm spectral region, looking at the ^7F0′ → ^5L6′ transition[23],[35]. For Cm^3+, ligand complexation was monitored in the 365–410 nm spectral region, looking at the ^8S7/2 → ^2Ji (i = {15}, {13,9}, {11,17}) manifold transitions[24],[25],[36]. Changes in aqueous p[H^+] were monitored throughout each titration step using a Gran-calibrated Orion Ross Semi-micro glass electrode. Baseline correction was applied to all datasets and was typically a simple linear subtraction. However, in the case of the ^248Cm/H4pypa-peg spectra, the tail end of the ligand absorption overlapped the hypersensitive Cm peaks. In this case the background correction was applied using a 5th-order empirical polynomial. Finally, the spectroscopic data was analyzed using the HypSpec software package[33],[37]. Full details of the titrand and titrant solutions for each titration are included in the Supplemental Information.
The coordination of Nd^3+ by H4octapa and H4pypa-peg was also studied using spectroscopic methods. Figures 5A, B show the collected spectrophotometric signatures for H4octapa and H4pypa-peg, respectively.4 M^3++L^4-⇆ML^-β101=ML^-/[M^3+]L^4- 5 M^3++H^++L^4-⇆MHLaqβ111=MHLaq/[M^3+L^4-H^+]
Optical absorption features of ^4I9/2 → ^4G5/2, ^2G7/2 transitions for Nd^3+ are perturbed due to the introduction of increasing quantities of complexants, resulting in characteristic red-shifted changes. In Fig. 5A a broad absorption band with λmax = 577 nm is distinctly different to the optical absorption of free Nd^3+ metal in Fig. 5B. The differences can be attributed to the nitrate complexation of Nd^3+ as the spectrophotometric titration with H4octapa was performed in 2.0 M (Na^+/H^+)NO3. […] The HypSpec interpretation of the Nd/pypa-peg titration points to the presence of three absorbing species: Nd^3+, NdHL(aq), and NdL^−. The conditional stability constants obtained spectroscopically are listed in Table 3, showing good agreement with the stability constants determined using potentiometry. The complex stability constants for structurally similar APC ligands found in the literature are also presented (H4pypa[18] and H4py4pa[57]).
2. Spectrophotometric titration parameters
Nd3+: The titrand solution consisting of 1.980 mL of 7.57 mM Nd(ClO4)3 at p[H+] = 1.61 was blended with 1.965 mL of titrant solution containing 7.62 mM Nd3+, 18.57 mM H4octapa, […]
Am3+: The titrand solution consisting of 0.842 mL of 0.810 mM Am(ClO4)3 at p[H+] =1.66 was blended with 0.811 mL of titrant solution containing 0.815 mM Am3+, 8.95 mM H4octapa, at p[H+] ≈ 5.0 – 6.0.
Nd3+: The titrand solution consisting of 0.801 mL of 9.82 mM Nd(ClO4)3 at p[H+] = 1.61 was blended with 1.176 mL of titrant solution containing 9.91 mM Nd3+ and 24.58 mM H4pypa-peg in with p[H+] ≈ 3.0 – 4.0.
Am3+: The titrand solution consisting of 0.806 mL of 0.791 mM Am(ClO4)3 at p[H+] = 1.41 was blended with 0.787 mL of titrant solution containing 0.801 mM Am3+ and 15.09 mM H4pypa-peg at p[H+] ≈ 5 – 6.
Cm3+: The titrand solution consist ing of 0.809 mL of 1.00 mM Cm(ClO4)3 at p[H+] = 1.34 was […]

[7] = in-batch spectrophotometric competition at 25 °C, not evaluated at constant I = 0.16 M NaCl
[8] = potentiometric titrations, I = 0.16 M NaCl, uncertainties 1σ

For `O=C(O)CN(Cc1cccc(CN(CC(=O)O)Cc2cccc(C(=O)O)n2)n1)Cc1cccc(C(=O)O)n1` [H4pypa], the “cross-lanthanide stability increase for ML- complexes” value [1] is listed as 1000 fold, the “pKa H2L2-” value [2] is listed as 6.78 (1) and the “pKa H3L-” value [2] is listed as 3.69 (1). For the same compound, the “pKa H4L(aq)” value [2] was 3.02 (1), the “pKa H5L+” value [2] was 2.23 (2) and the “pKa H6L2+” value [2] was 2.06 (6). The “pKa H7L3+” value [2] was 1.70 (2), the “pKa HL3-” value [2] was 7.78 (1) and the “logK111, La” value [3, 7] was 3.24 (5)*. The “logβ101 (ML), La” value [3, 8] was 19.54 (2), the “logK111, Lu” value [4, 7] was 3.60 (6)* and the “logβ101 (ML), Lu” value [4, 8] was 22.20 (2).
Compound `O=C(O)CN(CCN(CC(=O)O)CC(=O)O)CC(=O)O` [H4edta, ethylenediamine-N,N,N′,N′-tetraacetic acid] has a pKa ([5]; I = 2.0 M (Na+/H+)ClO4 (Table 2), read-out: pKa H2L2-) of 6.23, a pKa ([5]; I = 2.0 M (Na+/H+)ClO4 (Table 2), read-out: pKa H3L-) of 2.48 and a pKa ([5]; I = 2.0 M (Na+/H+)ClO4 (Table 2), read-out: pKa H4L(aq)) of 2.08. The pKa ([5]; I = 2.0 M (Na+/H+)ClO4 (Table 2), read-out: pKa HL3-) was 8.71, the pKa ([5]; I = 2.0 M (Na+/H+)ClO4 at 20.0 °C, read-out: pKa H2L species) was 6.45 and the pKa ([5]; I = 2.0 M (Na+/H+)ClO4 at 20.0 °C, read-out: pKa H3L species) was 2.49. The pKa ([5]; I = 2.0 M (Na+/H+)ClO4 at 20.0 °C, read-out: pKa H4L species) was 2.02, the pKa ([5]; I = 2.0 M (Na+/H+)ClO4 at 20.0 °C, read-out: pKa HL species) was 8.81 and the “logβ101 (ML), Nd” value [6] was 14.66(1).
